Source: patent US20210113501A1, “METHOD OF ADMINISTERING BETA-HYDROXY-BETA-METHYLBUTYRATE (HMB)” (Metabolic Technologies, Inc., priority 2009, published 2021)

Legend:
Format in all cases: in vivo, human
[1] = Study 2: plasma HMB and urinary HMB excretion over 24 h
Text: Human subjects. In study 1, four male and four female college-aged subjects were studied. In study 2, an additional four male and four female college-aged subjects were studied. The protocols for both studies were approved by the Iowa State University IRB and each subject gave informed consent to participate in the study. Due to the nature of the treatments, neither the subjects nor the researchers could be blinded.
Treatments. The same treatments were given to the subjects in both study groups. The three treatments were given in random order to each subject with at least a one week washout period between treatments. The treatments were supplied by Metabolic Technologies, Inc. (MTI, Ames, Iowa) and were prepared with food grade ingredients. One gram of CaHMB or the equivalent HMB in free acid in a gel form was administered to the subjects. The CaHMB capsules were obtained from a commercial supplement manufacturer (Optimum Nutrition, Aurora, Ill.) while the HMB-acid gel was prepared at MTI laboratories. Briefly, the HMB-acid was adjusted to a pH 4.5 with potassium carbonate (K2CO3) and flavors and sweeteners were then added. The 1.0 g CaHMB capsule was taken with 355 mL of water (approx. 12 oz.). The free acid gel dosage was 0.80 g and was equivalent to the free acid contained in the CaHMB in the capsule. The free acid gel treatments were either swallowed (FASW) or held sublingual for 15 seconds and then swallowed (FASL). FASW consisted of expelling the entire dose into the mouth in a 3 ml syringe, swallowing, and then following this with 355 mL of water. FASL subjects were instructed to place the entire dosage under the tongue and hold the dosage for 15 sec before swallowing. They then rinsed and followed the dose with 355 mL of water.
Study 2 design. Study 2 was conducted similar to study 1 with the following modifications. In study 2, plasma levels of HMB were measured for 1440 min (24 h) and total urine collection was also performed for measurement of urinary HMB excretion during this period. After the 180 min blood sample, the subjects were allowed to leave the laboratory and were instructed to return to the laboratory for additional blood samples at 360, 720, and 1440 min after the ingestion of the supplement. As in study 1, each subject took each of the treatments with at least a one week washout period between treatments. Samples were again stored frozen at −70° C. for analysis of plasma and urinary HMB concentrations. Pre-ingestion, 180 min and 1440 min blood samples were again assayed for the same measurements already for study 1. Subjects were provided with a standardized lunch after the 180 min blood sampling and instructed to eat this at approximately 240 min post ingestion. Following the 720 min blood sample, subjects were instructed to eat a normal evening meal before 10 pm. Subjects reported back to the laboratory the following morning for the fasted 1440 min blood sample. A urine collection container was provided and subjects collected all urine produced during the experimental 24 h experimental period. The urine was stored refrigerated when not being collected. Urine volumes were measured and samples of the total urine collection were taken and stored frozen at −70° C. until analyzed for HMB.
HMB analysis. Plasma and urine HMB were analyzed by gas chromatography/mass spectrometry (GC/MS) as previously described.(27)
Calculations and statistics. Areas under the curves were calculated for each subject using the trapezoidal method that sums the area above baseline.(51) Half-life of plasma HMB was calculated for study 2. The following equations were used:
k=(ln(Cpeak)−ln(Ctrough))/Tinterval
Peak plasma concentrations for each subject were used for Cpeak. […] Tpeak was the time at which Cpeak was measured and Tinterval is the time from Tpeak until the time at Ctrough (720 min). The extracellular fluid compartment was assumed to be 20% of body weight and calculated using equation 3 below(1). […]

[2] = tested on: protein degradation in muscle; test: Urinary 3-methylhistidine to creatinine ratio after an acute exercise bout
Description: (§1) Subjects: We conducted a study at the Iowa State University Health and Human Performance Laboratory; this study was approved by the Iowa State University Institutional Review Board, and was registered at ClinicalTrials.gov (NCT01150526). We recruited 12 men and 13 women between the ages of 20 and 36 from the Iowa State University community and surrounding area.
(§2) Treatments: The experimental design is depicted in FIG. 8.
Five treatments were administered as follows: Treatment 1: Placebo. This group received a placebo capsule and a placebo syringe dosage at each dosage administration. Treatment 2: CaHMB pre-exercise. This group received a CaHMB capsule and a placebo syringe dosage 30 min prior to the acute exercise bout. The remaining additional dosages during the study consisted of one placebo capsule and one placebo syringe dosage. Treatment 3: HMB-acid gel pre-exercise. This group received a placebo capsule and a syringe dosage of HMB-acid gel 30 min prior to the acute exercise bout. The remaining additional dosages during the study consisted of one placebo capsule and one placebo syringe dosage. Treatment 4: CaHMB pre- and post-exercise. This group received a CaHMB capsule and a placebo syringe dosage at all administration times during the study. Treatment 5: HMB-acid gel pre- and post-exercise. This group received a syringe dosage of HMB-acid gel and one placebo capsule at all administration times during the study.
To blind the treatments to both the researchers and subjects, each subject took a capsule and syringe dosage of supplement at each administration. The capsules contained either one gram of calcium lactate (Placebo) or one gram of calcium β-hydroxy-β-methylbutryate (CaHMB). The syringe dosages were formulated to be similar in taste and appearance and contained either 0.8 g of corn syrup (Placebo) or 0.8 g of β-hydroxy-β-methylbutryate free acid, the same amount of HMB as in the capsule dosage. The 3 daily doses provided the same total HMB dosage (2.4 g as calcium HMB in the capsules or 2.4 g as HMB free acid in the syringes).
Eccentric Exercise Bout: Subjects refrained from vigorous exercise for three days before reporting to the laboratory. All subjects were studied after an overnight fast. […] Subjects then consumed their assigned supplement and 30 minutes later the eccentric exercise session was performed. The exercise consisted of 50 maximal effort contractions of knee extensors while attempting to resist the Biodex lever arm as it moves the knee joint from full extension to 90 degrees flexion; this is similar to letting a heavy weight down slowly while in a seated position. Each contraction lasted about 2 seconds and 12 seconds were allowed between contractions. This protocol was performed on the right leg followed by the left leg. The subjects received 2 more daily dosages of treatment (placebo or HMB) with instructions to take the dosages at lunch and dinner. For the next 4 days the subjects returned to the laboratory fasted each morning, had blood taken and urine collected and then consumed the morning dosage of their supplement. The subjects were again given the 2 remaining daily supplement dosages with instructions to take them at lunch and dinner.
(§3) Serum and Urine Samples: A fasting blood sample was taken from a superficial forearm vein each morning when the subjects reported to the laboratory for testing. Additionally a clean catch urine sample was collected at this time. Serum CPK was analyzed by a commercial laboratory (Quest Diagnostics, Madison N.J.). Urine 3-Methylhistidine (3MH) was analyzed by a previously published GC/MS method (9). Urinary creatinine was analyzed by colorimetric assay (Cayman Chemical Company, Ann Arbor, Mich.). The urinary 3MH data was normalized to urinary creatinine and expressed as 3MH:creatinine ratio, μmol:mg.
(§4) Statistics: Data were analyzed using the mixed model procedure in Statistical Analysis System for Windows (Release 9.1.3, SAS Institute, Cary, N.C.). […]

muscle damage = test: Serum CPK after an acute eccentric exercise bout; conditions: pre- and post exercise dosing (Treatment 5)
Description: as §1, §2
Five treatments were administered as follows: Treatment 1: Placebo. This group received a placebo capsule and a placebo syringe dosage at each dosage administration. Treatment 2: CaHMB pre-exercise. […]
as §3, with “Additionally a clean catch urine sample was collected at this time.” left out
as §4

## CC(C)(O)CC(=O)O [HMB-acid gel, β-hydroxy-β-methylbutryate free acid]
[1]; Study 2
  increase in HMB plasma clearance compared with CaHMB: 25%
[1]; Study 2, over 24 hours, listed as free acid gel
  AUC greater than for CaHMB capsules: +14.8%
[1]; based upon plasma clearance
  estimated amount of HMB retained greater than CaHMB: 25%
[1]; free acid versus CaHMB
  peak plasma level earlier than with CaHMB: ~90 min
[1]; peak levels
  plasma level relative to oral CaHMB: ~2 fold
[2]; Baseline, dosed pre- and post exercise (Treatments 4, 5)
  3MH:Cr: 0.225 ± 0.034 µmol/mg
[2]; Baseline, dosed pre-exercise only (Treatments 2, 3)
  3MH:Cr: 0.173 ± 0.028 µmol/mg
[2]; at 24 h, dosed pre- and post exercise (Treatments 4, 5)
  3MH:Cr: 0.213 ± 0.025 µmol/mg
[2]; at 24 h, dosed pre-exercise only (Treatments 2, 3)
  3MH:Cr: 0.213 ± 0.037 µmol/mg
[2]; at 48 h, dosed pre- and post exercise (Treatments 4, 5)
  3MH:Cr: 0.208 ± 0.012 µmol/mg
[2]; at 48 h, dosed pre-exercise only (Treatments 2, 3)
  3MH:Cr: 0.190 ± 0.014 µmol/mg
[2]; at 72 h, dosed pre- and post exercise (Treatments 4, 5)
  3MH:Cr: 0.175 ± 0.013 µmol/mg
[2]; at 72 h, dosed pre-exercise only (Treatments 2, 3)
  3MH:Cr: 0.172 ± 0.013 µmol/mg
[2]; at 96 h, dosed pre- and post exercise (Treatments 4, 5)
  3MH:Cr: 0.186 ± 0.043 µmol/mg
[2]; at 96 h, dosed pre-exercise only (Treatments 2, 3)
  3MH:Cr: 0.202 ± 0.020 µmol/mg
[2]; pre- and post exercise dosing
  protein degradation (3MH:Cr ratio), trend: no increase and even a decrease in protein degradation
Muscle damage; 24 h post exercise, P<0.03
  blunting of the exercise-induced increase in serum CPK: up to 64%
Muscle damage; 48 h post exercise, P<0.005
  blunting of the exercise-induced increase in serum CPK: 86%
